Experimental data published in patent US20120283335A1, “Analogs of Propofol, Preparation Thereof and Use as Anesthetics” (priority 2008, published 2012).
Entries after “also recorded” stand apart in the source; their conditions may differ.

Experiments:
Male Sprague Dawley rats = assay: Test A. Loss of Righting Reflex Assay with dose escalation to maximum tolerated dose; format: in vivo; details: rat; for Safety compared with propofol: doses escalated; for Potency compared with propofol: equal dose (7 mg/kg), 7 mg/kg
From the text: The ability of a compound of the invention to produce an anesthetic effect (i.e. efficacy) can be determined using standard pharmacological models that are well known to the art. […] The potency of such a compound was compared to the potency of propofol using this assay.
The safety of a compound of the invention can be determined using standard pharmacological models that are well known to the art. […] The safety of such a compound was compared to that of propofol using this assay.
Male Sprague Dawley rats were restrained in a holder, and test compound or propofol was injected in the tail vein (based on milligrams (mg) compound per kilogram (kg) body weight). Following administration, the rats were placed in a dorsal recumbent position on a heating blanket. The time to onset for the loss of the Righting Reflex (RR-ability of rat to right itself) was recorded, as was the duration of the loss of the RR. Doses were escalated until the maximum tolerated doses were achieved.

pig = assay: Test B. Anesthetized Pig Model (hemodynamic profile); format: in vivo; details: 20 minute intravenous infusion, data in FIGS. 1 and 2
Method: The hemodynamic profile of a compound of the invention can be determined using standard pharmacological models that are well known to the art. The hemodynamic and anesthetic profiles of a compound of the invention can be evaluated simultaneously using an anesthetized pig model (as described in Test B below).
The anesthetic induction was performed using a modification of a technique described by Ko et al (Ko et al., Lab Anim Sci 1993; 43: 476-80) for swine (Telazol, xylazine and ketamine given as an intramuscular injection). The minimal effective dose for induction and tracheal intubation was used. […]
A compound of the invention or propofol was administered intravenously by a 20 minute infusion after the stabilization period through the peripheral IV catheter. […] Blood samples (1 mL each) were collected at pre-dose and at 2, 4, 6, 8, 10, 12, 15, 20, 22, […], 25, 35, 50, 65 and 80 minutes after the start of the first infusion for pharmacokinetic purposes; EEG were recorded continuously as the primary pharmacodynamic endpoint. […]
The EEG signal was fed to a BIS analyzer (Aspect Medical) which provided continuous output of processed EEG data. The output consisted of a “BIS” number calculated by a proprietary algorithm that ranges between 100 (fully conscious) and 0 (isoelectric) and indicated brain activity.
Hemodynamic data were recorded and plotted to assess trends over the drug exposure period. […]

Row | Compound | Safety compared with propofol (Male Sprague Dawley rats) | Potency compared with propofol (Male Sprague Dawley rats) | Outcome: deaths (Male Sprague Dawley rats; tail vein bolus dose 7 mg/kg) | Outcome: minutes of sleep post bolus dose (Male Sprague Dawley rats; tail vein bolus dose 7 mg/kg) | Outcome: deaths (Male Sprague Dawley rats; tail vein bolus dose 14 mg/kg) | Outcome: deaths (Male Sprague Dawley rats; tail vein bolus dose 21 mg/kg) | Hemodynamic properties compared with propofol (pig) | Potency compared with propofol (Male Sprague Dawley rats; listed as 2-(1-Ethylpropyl)-6-isopropylphenol)
1 | CC(C)c1cccc(C(C)C(C)C)c1O (racemic) [2-(3-methyl)secbutyl-6-isopropylphenol] | greater safety compared to propofol; also recorded: improved safety | at least equivalent, if not greater potency than propofol; also recorded: at least equivalent potency | 0/6 deaths | 7.5 minutes of sleep post | 0/6 deaths | 0/6 deaths | – | –
2 | CCC(CC)c1cccc(C(C)C)c1O [2-(1-ethylpropyl)-6-isopropylphenol] | greater safety compared to propofol; also recorded: improved safety | at least equivalent potency | 0/6 deaths | 9.9 minutes of sleep post | 0/6 deaths | 0/6 deaths | improved hemodynamic properties | at least equivalent, if not greater, potency than propofol
3 | CC(C)c1cccc(C(C)C)c1O [Propofol, 2,6-diisopropylphenol] | – | – | 0/10 deaths | 7.1 minutes of sleep post | 6/10 deaths | 4/6 deaths | – | –
